From US20190192527A1, “COMPOSITIONS COMPRISING PIKFYVE INHIBITORS AND METHODS RELATED TO INHIBITION OF RANK SIGNALING” (AI Therapeutics, Inc., priority 2016, published 2019)

How the values were obtained:
[1] = system: periodontal bone resorption; assay: rat periodontal disease model; type: in vivo
Description: FIGS. 6A-6B: Graphical representation of the effect of apilimod on periodontal bone resorption (A). Daily oral doses of apilimod (8 and 20 mg/kg) reduce bone loss (B).
Moreover, apilimod was active in inhibiting in vivo osteoclast activity in a rat periodontal disease model (see FIGS. 6A-6B). In brief, Th-1 type clonal cells specific for Actinobacillus actinomycetemcomitans (Aa) 29-kDa outer membrane protein (Omp29) were activated by incubation with formalin-killed Aa and irradiated syngeneic rat spleen cells. These activated cells were then transferred intravenously through the rat tail vein (1.0×10^7 cells) into the rat. On the same day, the antigen Omp29 was injected with LPS into the left palatal maxilla gingiva; and saline was injected into the right palatal maxilla gingiva, for control measurements. Apilimod was given orally in daily doses of 8 and 20 mg/kg from the day of the induction until day 10. At the end of the ten day period, animals were sacrificed and their jaws were defleshed to allow the assessment of periodontal bone resorption, calculated as the ratio of the difference in cemento-enamel junction (CEJ-AL) distance between left and right sides versus CEJ-AL distance of right.

RAW264.7 macrophages = assay: RANKL-induced differentiation of TRAP positive osteoclasts from RAW264.7 macrophages; type: cell-based
Description: RAW264.7 macrophages were differentiated with either vehicle or 30 ng/mL RANKL for a total of 5 days. For the last 3 days of differentiation, cells were co-treated with the indicated concentration of apilimod. Cells were subsequently stained for TRAP. Arrows highlight giant TRAP positive, multinucleated osteoclasts.
FIGS. 4A-4B: Inhibition of RANKL-induced differentiation of RAW264.7-derived osteoclasts by apilimod as indicated by a reduction in the number of TRAP-positive multinucleated cells (A) or giant osteoclasts (B). The average of triplicate wells was determined and percentages relative to untreated are shown.
(§1) Apilimod blocked the expression of RANK receptor and the transcription factors MITF, PU.1 and c-Fos in both undifferentiated and RANKL-differentiated RAW264.7 macrophages. Cells were differentiated for a total of 3 days with 30 ng/mL RANKL. On the last day of differentiation cells were co-treated with RANKL and the indicated concentration of apilimod or vehicle for 24h. […] (see FIGS. 5A-5B).

pKa = type: physicochemical
osteoclast formation = conditions: in vitro assay, described in WO 2005/000404; read-out: IC50, inhibitory activity against osteoclast formation; cited from earlier work
MPC-11 tumor cells = assay: systemic MPC-11 syngeneic model of multiple myeloma; type: in vivo, mouse
Excerpt: To determine if apilimod inhibition of RANKL/RANK signaling blocks the bone growth of multiple myeloma cells in vivo, the systemic MPC-11 syngeneic model was used (Laskov R et al. J Exp Med. 1970 131(3):515-41; Ferguson V L et al. Bone. 2002 30(1): 109-116). In this model, animals develop hind limb paralysis due to infiltration of multiple myeloma cells into the vertebrae that compresses the spinal column. In brief, MPC-11 tumor cells were maintained in vitro in DMEM medium supplemented with 10% horse serum at 37° C. in 5% CO2. Each mouse was then injected via the tail vein with MPC-11 tumor cells (1×10^6) in 0.1 ml of PBS for tumor development. The regimen of dosing is detailed in Table 1. At 4 days post-tumor inoculation, mice were orally administered with a vehicle or apilimod dimesylate (70 mg/kg) twice a day up to 35 days. Survival rate of vehicle-treated animal group (n=10) and apilimod-treated animal group (n=10) were monitored as an indicator of hind limb paralysis.
To directly examine the effect of apilimod on the MPC-11 tumor burden in bone, immunohistochemical staining was performed. Femurs from the in vivo experiment were fixed in 10% formalin and then rinsed in 70% ethanol and dehydrated in acetone before embedding in methacrylate. 4 μm sections were then stained in 2% Toluidine blue. […] Orange boxed region on left panel is shown at 40× magnification in the right panel. Note total effacement of bone marrow architecture and replacement with MPC-11 tumor cells in top panel. […] This effect was quantitated by generating paraffin sections from tibias of the animals and staining the sections with the multiple myeloma marker CD138 (BioLegend antibody, Clone 281-2). Values for CD138 positive staining were obtained by measuring within in a pre-defined Region of Interest (ROI) defined as 1.17 millimeter square, 200 micrometer below the tibia proximal growth plate. CD138 positive staining was measured according to standard protocols (Dempster D W et al. J Clin Endocrinol Metab. 2012 97(8):2799-2808).

WSU-DLCL2B cell lymphoma = assay: viability (CellTiter Glo) of CRISPR guide RNA cell pools treated with apilimod; type: cell-based; conditions: treated for 3 days
Description: Pools cells containing guide RNAs targeted against either the indicated genes or non-targeting (NT) guide RNAs were treated with apilimod for 3 days and viability was assayed by CellTiter Glo (Promega).
A genome-wide CRISPR screen for factors conferring resistance of B-cell lymphoma to apilimod uncovered the lysosomal regulator TFEB as well as the lysosomal and osteopetrosis-associated genes CLCN7, OSTM1, and SNX10 as mediators of apilimod-induced cytotoxicity (see FIGS. 1A-1D).

[2] = microsomal and hepatocyte stability studies, metabolite identification; type: in vitro ADME; conditions: rat and human microsomal and hepatocyte stability studies
Description: (§2) In embodiments, the apilimod for use in the compositions and methods of the invention is the free base or dimesylate salt form, MW 610.7 (dimesylate salt); tPSA 83.1; pKa 5.39 (±0.03), 4.54 (±0.27); HBD 1. […] In embodiments, an active metabolite of apilimod may be used. […] Tmax generally occurred within 1 or 2 hours after the oral dose, consistent with the rapid […] of this compound from the circulation. […] The primary metabolites are short-lived in circulation. Both apilimod free base and the dimesylate salt are highly bound ([…]) to rat, dog and human plasma proteins.

Cathepsin K = Cathepsin K maturation, western blot in RAW 264.7-derived osteoclasts; type: cell-based; conditions: differentiated with 30 ng/ml RANKL 4 days, then RANKL and apilimod 24 hours
Description: RAW264.7 macrophages were differentiated with 30 ng/ml RANKL for 4 days and subsequently treated with RANKL and the indicated concentration of apilimod for 24 hours prior to harvesting lysates and performing western blot for the indicated protein.

[3] = system: RANK, c-Fos, MITF, PU.1, TRAF6, OPG; assay: RNA expression of osteogenic factors by quantitative PCR in RAW264.7 macrophages; type: cell-based; conditions: undifferentiated and RANKL-differentiated (30 ng/mL, 3 days) cells, apilimod 24h
Excerpt: FIG. 5A-5B: Effect of apilimod treatment on the RNA expression of osteogenic factors RANK, c-Fos, microphthalmia-associated transcription factor (MITF), PU.1, TNF receptor associated factor 6 (TRAF6) and osteoprotegerin (OPG) in undifferentiated (A) or differentiated (B) RAW264.7 macrophages as assessed by quantitative PCR.
as §1

CYP3A4, CYP1A2, CYP2D6 = assay: reaction phenotyping studies; type: in vitro ADME
Description: as §2

[4] = RANKL-induced differentiation, relative to untreated
[5] = tibia sections, ROI 1.17 millimeter square, n = 5, apilimod dimesylate 70 mg/kg p.o. BID

Cc1cccc(/C=N/Nc2cc(N3CCOCC3)nc(OCCc3ccccn3)n2)c1 [apilimod]
protection against Th1-mediated bone loss (periodontal bone resorption) ([1]; 8 mg/kg orally daily until day 10): significant protection | protection against Th1-mediated bone loss (periodontal bone resorption) ([1]; 20 mg/kg orally daily until day 10): significant protection | RANKL-stimulated osteoclastogenesis (RAW264.7 macrophages; 30 ng/mL RANKL 5 days, apilimod for the last 3 days, TRAP staining): potently blocked | number of TRAP-positive multinucleated cells (RAW264.7 macrophages; [4]): reduction | number of giant osteoclasts (RAW264.7 macrophages; [4]): reduction | pKa (pKa): 5.39 | IC50 (osteoclast formation): 15 nM | invasion of myeloma cells in femur marrow, toluidine blue staining, qualitative (MPC-11 tumor cells; apilimod dimesylate 70 mg/kg p.o. BID): minimal invasion | animals with hind limb paralysis (MPC-11 tumor cells; apilimod dimesylate 70 mg/kg p.o. twice a day up to 35 days, n=10): none | Tumor Area, CD138 staining (MPC-11 tumor cells; [5]): 0.012 ± 0.03 mm^2 | Tumor Area/ Tissue Area, CD138 staining (MPC-11 tumor cells; [5]): 0.010 ± 0.02% | effect of CRISPR-induced loss of CLCN7, OSTM1, SNX10, TFEB on viability under apilimod (WSU-DLCL2B cell lymphoma): confer resistance to apilimod | primary metabolites identified [2]: Six primary metabolites | cathepsin K processing (maturation) (Cathepsin K): inhibition of cathepsin K processing | RNA expression of RANK, c-Fos, MITF, and PU.1 [3]: Decreases were observed | RNA expression of TRAF6 or OPG [3]: Significant decreases were not observed | enzymes that contribute to metabolism (CYP3A4, CYP1A2, CYP2D6): CYP3A4 and to a lesser extent CYP1A2 and/or CYP2D6
